Measurements from patent publication EP3436024B1, “3-BETA-METHOXY-PREG FOR USE IN THE TREATMENT OF TREATMENT RESISTANT DEPRESSION” (Mapreg, priority 2016, dated 2017).

Tests used:
[1] = test system: microtubule-associated protein2 (MAP2); test: Binding (affinity) by displacement of PREG-3H; conditions: index of binding
[2] = target: purified tubulin and MAP2 (Homo sapiens, UniProt P11137); test: Microtubule polymerization activity (optical density at 345 nm); type: biochemical; conditions: increase in optical density at 345 nm, 37 °C, in the presence of GTP
Method: Activity is measured by the increase in optical density at 345 nm of a mixture of purified tubulin and MAP2, incubated at 37 °C in the presence of GTP.

PC12 cells = test: Stimulation of neuritic sprouting; type: cell-based; conditions: PC12 cells differentiated with NGF (10 ng/ml), steroid 30 µM, 3 days; relative to PREG
Method: Stimulation of neuritic sprouting is conducted on PC12 cells differentiated in the presence of NGF (10 ng/ml) and the steroid being tested (30 µM) for 3 days. For each condition, the average length of the longest 200 neurites […] is measured simultaneously for 3 cultures.

Wistar Kyoto (WKY) rats [3] = test: Locomotor activity in the open-field arena, WKY rats; type: in vivo, rat; conditions: acute, fluoxetine 10 mg/kg i.p., ketamine 30 mg/kg i.p., 3 min, Fig. 5A
Method: (§1) After a 6-day period of acclimatization, all experimental groups received daily successive subcutaneous (250 µl per rat) and intraperitoneal (1 ml/kg) injections. WI rats received injection of vehicle (sesame oil + saline) while WKY rats were randomly assigned to […], as follow: KWY rats receiving only vehicle (sesame oil + saline) and WKY rats treated with MAP4343 (10 mg/kg, s.c.; rats received in parallel i.p. injections of saline), fluoxetine (10 mg/kg i.p., rats received in parallel s.c. injections of sesame oil) or ketamine (30 mg/kg, i.p.; rats received in parallel s.c. injections of sesame oil) (see Figure 3).
(§2) After, a 6-day period of acclimatization, the acute phase of treatment started for 4 days during behavioral tests were performed (Figure 3). All animals were injected 1h30 before the starting of behavioral test.
(§3) The animals were individually placed in the open field arena (OFA) (70 x 100 x 70 cm), with a central square (35 x 50 cm), located in a 50 lux illuminated room and videotaped during 3 min using a computerized system (VideoTrack V2.5, ViewPoint, Lyon, France).
(§4) OFA allows firstly the evaluation of total locomotor activity (LMA) thereby measuring the total distance travelled in the arena (in cm). Secondly, measurements of the activity in the center of the arena like (i) the number of entries in the center of arena and (ii) the total time spent in the center of arena (in sec) provide cues of anxiety-like behavior (Prut and Belzung, 2003). All these behavioral parameters were instantaneously measured automatically with the VideoTrack V2.5 software from the videos.

Wistar Kyoto (WKY) rats [4] = test: Anxious-like behavior: activity in the central square of the open-field arena, WKY rats; type: in vivo, rat; conditions: acute, MAP4343 10 mg/kg s.c., fluoxetine 10 mg/kg i.p., ketamine 30 mg/kg i.p.
Method: as §1, §2, §3, §4

Wistar Kyoto (WKY) rats [5] = test: Elevated-plus maze (EPM), WKY rats; type: in vivo, rat; conditions: acute, MAP4343 10 mg/kg s.c., fluoxetine 10 mg/kg, ketamine 30 mg/kg i.p., Fig. 5D
Method: as §1, §2
We used the elevated-plus maze (EPM) as an assay of anxiety-related behavior in rodents (Walf and Frye, 2007). Rats were initially placed in the center of the plus-maze, consisting of two open arms (50 x 10 cm) and two closed arms (50 x 10 cm enclosed by 40 cm walls), in a 50 lux illuminated room and videotaped during 5 min using a computerized system (VideoTrack V2.5, ViewPoint, Lyon, France). The time spent in the open versus closed arms was blindly measured by two independent experimenters from the recorded video, and the open arm-index was calculated as follow: time in the open arms (sec) / [time in open arms (sec) + time in closed arms (sec)].

[6] = target: T1, human progesterone receptor(PR) (Homo sapiens, UniProt P06401); test: Test of progesterone receptor agonist activity (MMTV-luciferase transactivation in transfected HEK293T cells); type: cell-based; conditions: 24 hours, increasing amounts, Figure 1
T1 construct: expressed in transfected cells; host or cells: HEK293T
T1 sequence (P06401 1-933): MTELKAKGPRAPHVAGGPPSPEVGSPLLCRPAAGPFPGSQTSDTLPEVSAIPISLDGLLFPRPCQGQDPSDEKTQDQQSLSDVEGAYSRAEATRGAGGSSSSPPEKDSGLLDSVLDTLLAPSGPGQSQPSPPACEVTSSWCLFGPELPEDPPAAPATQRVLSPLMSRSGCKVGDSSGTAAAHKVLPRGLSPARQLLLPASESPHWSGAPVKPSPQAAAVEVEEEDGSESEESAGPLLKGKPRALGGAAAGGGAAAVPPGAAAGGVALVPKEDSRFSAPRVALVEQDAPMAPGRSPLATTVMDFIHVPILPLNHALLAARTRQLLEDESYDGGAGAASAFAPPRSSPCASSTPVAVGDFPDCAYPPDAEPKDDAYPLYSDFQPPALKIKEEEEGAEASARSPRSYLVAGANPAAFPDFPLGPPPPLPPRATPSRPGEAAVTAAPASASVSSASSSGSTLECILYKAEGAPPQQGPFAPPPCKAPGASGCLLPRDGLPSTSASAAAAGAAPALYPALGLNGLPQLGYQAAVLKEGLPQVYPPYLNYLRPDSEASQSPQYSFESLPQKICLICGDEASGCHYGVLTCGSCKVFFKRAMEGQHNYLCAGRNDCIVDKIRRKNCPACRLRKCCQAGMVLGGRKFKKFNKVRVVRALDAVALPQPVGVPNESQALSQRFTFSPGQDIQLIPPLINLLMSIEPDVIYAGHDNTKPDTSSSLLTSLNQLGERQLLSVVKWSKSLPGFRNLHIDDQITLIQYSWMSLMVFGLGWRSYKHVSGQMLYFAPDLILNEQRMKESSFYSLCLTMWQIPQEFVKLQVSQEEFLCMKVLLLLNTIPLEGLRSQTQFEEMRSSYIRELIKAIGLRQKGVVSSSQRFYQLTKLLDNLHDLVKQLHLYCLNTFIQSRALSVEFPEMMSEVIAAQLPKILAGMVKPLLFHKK
Method: The main experimental setting used is the following: HEK293T cells were transiently transfected, using calcium phosphate precipitation technology, with expression vectors pSG5hPR (which permits expression of human progesterone receptor(PR)), pFC31-luc (contains the luciferase gene under the control of the MMTV promoter, which is in turn activated by binding of a progestin to progesterone receptor) and pcbetagal (which permits expression of betagalactosidase), and cultured during 24 hours with increasing amounts of various compositions: • 1. […] Test of progesterone receptor […] activity: transfected cells were cultured with progesterone (1 nM) and increasing amounts of RU486 (a well-known progesterone receptor antagonist) or 3-methoxy-pregnenolone. With this setting, a compound with progesterone receptor antagonist activity competes with progesterone for the occupation of progesterone receptor and results in a progressive loss of transactivation activity when the amount of this compound is increased compared to progesterone.

Chain of purified tubulin and MAP2 (P11137 whole entry): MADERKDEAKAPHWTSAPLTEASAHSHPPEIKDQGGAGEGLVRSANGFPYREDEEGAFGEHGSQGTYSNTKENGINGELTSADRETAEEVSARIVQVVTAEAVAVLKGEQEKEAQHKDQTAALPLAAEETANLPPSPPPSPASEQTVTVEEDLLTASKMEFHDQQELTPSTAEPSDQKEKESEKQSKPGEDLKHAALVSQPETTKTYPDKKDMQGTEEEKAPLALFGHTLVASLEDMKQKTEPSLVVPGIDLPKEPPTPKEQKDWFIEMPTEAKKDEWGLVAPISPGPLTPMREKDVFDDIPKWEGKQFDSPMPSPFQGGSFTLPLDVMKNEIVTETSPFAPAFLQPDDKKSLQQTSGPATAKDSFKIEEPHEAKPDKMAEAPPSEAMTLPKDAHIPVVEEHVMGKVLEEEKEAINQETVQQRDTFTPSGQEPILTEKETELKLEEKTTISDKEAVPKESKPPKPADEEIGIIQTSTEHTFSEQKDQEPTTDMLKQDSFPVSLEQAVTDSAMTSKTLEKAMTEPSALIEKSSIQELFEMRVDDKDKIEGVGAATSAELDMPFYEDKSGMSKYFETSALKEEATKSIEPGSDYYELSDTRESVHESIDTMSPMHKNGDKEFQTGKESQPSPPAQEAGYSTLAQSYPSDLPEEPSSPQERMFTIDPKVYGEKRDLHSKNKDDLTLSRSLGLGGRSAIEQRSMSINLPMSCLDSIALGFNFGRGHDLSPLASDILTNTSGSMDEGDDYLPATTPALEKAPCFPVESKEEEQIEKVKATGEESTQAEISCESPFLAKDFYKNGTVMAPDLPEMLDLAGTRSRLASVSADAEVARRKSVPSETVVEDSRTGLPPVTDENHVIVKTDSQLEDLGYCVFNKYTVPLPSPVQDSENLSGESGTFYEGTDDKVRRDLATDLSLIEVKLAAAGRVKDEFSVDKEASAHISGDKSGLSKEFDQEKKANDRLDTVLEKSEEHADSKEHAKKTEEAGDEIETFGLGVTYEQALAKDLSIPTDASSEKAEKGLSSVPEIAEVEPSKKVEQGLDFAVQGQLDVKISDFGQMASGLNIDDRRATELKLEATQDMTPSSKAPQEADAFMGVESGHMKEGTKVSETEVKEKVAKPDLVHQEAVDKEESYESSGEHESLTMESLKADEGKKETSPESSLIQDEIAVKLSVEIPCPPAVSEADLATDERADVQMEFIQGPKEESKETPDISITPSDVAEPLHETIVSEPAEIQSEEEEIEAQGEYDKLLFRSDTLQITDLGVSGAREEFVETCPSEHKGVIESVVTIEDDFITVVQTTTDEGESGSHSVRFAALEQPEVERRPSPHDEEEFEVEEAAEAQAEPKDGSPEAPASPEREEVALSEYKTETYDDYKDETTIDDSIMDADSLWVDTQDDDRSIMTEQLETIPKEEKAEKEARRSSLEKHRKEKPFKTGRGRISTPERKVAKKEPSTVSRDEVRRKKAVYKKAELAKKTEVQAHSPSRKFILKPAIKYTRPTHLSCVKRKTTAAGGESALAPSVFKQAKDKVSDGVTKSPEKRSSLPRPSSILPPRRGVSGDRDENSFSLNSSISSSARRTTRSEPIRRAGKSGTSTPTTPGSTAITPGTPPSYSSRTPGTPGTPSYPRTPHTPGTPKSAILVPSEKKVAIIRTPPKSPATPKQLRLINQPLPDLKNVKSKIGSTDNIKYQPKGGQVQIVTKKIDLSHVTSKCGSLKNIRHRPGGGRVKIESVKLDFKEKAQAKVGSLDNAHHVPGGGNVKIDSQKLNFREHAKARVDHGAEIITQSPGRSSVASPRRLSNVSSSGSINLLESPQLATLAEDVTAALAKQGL

SMILES	Affinity [1]	Activity [2]	Neuritic sprouting (PC12 cells)	other results
CO[C@H]1CC[C@@]2(C)[C@@H](CC[C@@H]3[C@@H]2CC[C@]2(C)[C@@H](C(C)=O)CC[C@@H]32)C1 (stereo in doubt) [3β-methoxy-5a-pregnane-20-one]	87% of PREG	10% of PREG	+++	–
CC(=O)[C@H]1[C@H](C)C[C@H]2[C@@H]3CC[C@H]4C[C@@H](O)CC[C@]4(C)[C@H]3CC[C@@]21C [3β-hydroxy-5a-pregnane-20-one-16a-methyl]	57% of PREG	53% of PREG	–	–
CO[C@H]1CC[C@@]2(C)[C@@H](CC[C@@H]3[C@@H]2CC[C@]2(C)[C@@H]([C@@H](C)O)CC[C@@H]32)C1 [3β-methoxy-5a-pregnane-20β-ol]	65% of PREG	65% of PREG	++ (equal to)	–
CO[C@H]1CC[C@@]2(C)C(=CC[C@H]3C4=CC[C@H](C(C)=O)[C@@]4(C)CC[C@@H]32)C1 [3β-methoxy-pregna-5,14-diene-20-one]	102% of PREG	50% of PREG	+ (stimulation is lower than)	–
CO[C@H]1CC[C@@]2(C)C(=CCC3C2CC[C@@]2(C)C3CC[C@@]2(C(C)=O)C(Cl)Cl)C1 (stereo partly drawn) [3β-methoxy-pregna-5-ene-20-one-17a-dichloromethyl]	53% of PREG	113% of PREG	+++	–
CC(=O)[C@@]12O[C@@H]1C[C@H]1[C@@H]3CC=C4C[C@@H](O)CC[C@]4(C)[C@H]3CC[C@@]12C [PREG-16a,17a-epoxy]	41% of PREG	54% of PREG	+ (stimulation is lower than)	–
CC(=O)[C@@]12C[C@@H]1C[C@H]1[C@@H]3CC=C4C[C@@H](O)CC[C@]4(C)[C@H]3CC[C@@]12C [PREG-16a,17a-methylene]	62% of PREG	49% of PREG	+ (stimulation is lower than)	–
CC(=O)[C@H]1[C@H](C)C[C@H]2[C@@H]3CC=C4C[C@@H](O)CC[C@]4(C)[C@H]3CC[C@@]21C [PREG-16a-methyl]	80% of PREG	70% of PREG	++ (equal to)	–
CC(=O)[C@H]1[C@@H](C)C[C@H]2[C@@H]3CC=C4C[C@@H](O)CC[C@]4(C)[C@H]3CC[C@@]21C [PREG-168-methyl]	63% of PREG	67% of PREG	–	–
CC(=O)O[C@H](C)[C@H]1CC[C@H]2[C@@H]3CC=C4C[C@@H](O)CC[C@]4(C)[C@H]3CC[C@]12C [Pregna-5-ene-3β,20β-diol-20-acetate]	60% of PREG	108% of PREG	++ (equal to)	–
CC(=O)[C@H]1CC[C@H]2[C@@H]3CC=C4C[C@@H](O)CC[C@]4(C)[C@H]3CC[C@]12C [Pregnenolone (PREG), 3β-hydroxypregn-5α-en-20α-one, reference compound]	100% of PREG	100% of PREG	++ (equal to)	–
CNC1(c2ccccc2Cl)CCCCC1=O (stereo not shown) [ketamine]	–	–	–	locomotor activity (total distance travelled in the open-field arena), change as compared to WKY receiving vehicle (Wistar Kyoto (WKY) rats [3]; MAP4343 10 mg/kg s.c.): no significant change; locomotor activity (total distance travelled in the open-field arena), change as compared to MAP4343-treated WKY (Wistar Kyoto (WKY) rats [3]): no significant change; number of entries in the central square of OFA, change as compared to WKY receiving only vehicle (Wistar Kyoto (WKY) rats [4]; Fig. 5B): failed to significantly modify; time spent in the center of open-field, change as compared to WKY receiving vehicle (Wistar Kyoto (WKY) rats [4]; Fig. 5C): did not induce any significant change; open-arm (OA) index, change when compared to WKY receiving vehicle alone (Wistar Kyoto (WKY) rats [5]): -29%
CC(=O)[C@H]1CC[C@H]2[C@@H]3CCC4=CC(=O)CC[C@]4(C)[C@H]3CC[C@]12C [progesterone, reference compound]	–	–	–	progesterone receptor agonist activity (transactivation activity leading to the expression of luciferase) [6]: permits a transactivation activity
